Source: PubChem BioAssay (NCI)
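All cell lines were grown in 96-well plates and treated with compound for 48 hours. TGI denotes the concentration required for complete inhibition of growth.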

Key:
Experiment in all cases: NCI anticancer screen, dose series, 48 h
OVCAR-8 ovarian = test system: OVCAR-8 ovarian
HOP-62 NSCLC = test system: HOP-62 NSCLC
MDA-MB-435 = test system: MDA-MB-435
BT-549 breast = test system: BT-549 breast
UACC-257 melanoma = test system: UACC-257 melanoma
EKVX NSCLC = test system: EKVX NSCLC
A549 NSCLC = test system: A549 NSCLC
HL-60(TB) leukemia = test system: HL-60(TB) leukemia
HT29 colon = test system: HT29 colon
CCRF-CEM leukemia = test system: CCRF-CEM leukemia
786-0 renal = test system: 786-0 renal
CAKI-1 renal = test system: CAKI-1 renal
SF-539 CNS = test system: SF-539 CNS
SW-620 colon = test system: SW-620 colon
HCT-116 colon = test system: HCT-116 colon
NCI-H226 lung = test system: NCI-H226 lung
SK-MEL-2 melanoma = test system: SK-MEL-2 melanoma
COLO 205 colon = test system: COLO 205 colon
SK-MEL-5 melanoma = test system: SK-MEL-5 melanoma
KM12 colon = test system: KM12 colon
U251 CNS = test system: U251 CNS
SN12C renal = test system: SN12C renal
SK-OV-3 ovarian = test system: SK-OV-3 ovarian
NCI-H522 lung = test system: NCI-H522 lung
MALME-3M melanoma = test system: MALME-3M melanoma
NCI-H23 lung = test system: NCI-H23 lung
UO-31 renal = test system: UO-31 renal
NCI/ADR-RES ovarian = test system: NCI/ADR-RES ovarian
LOX IMVI melanoma = test system: LOX IMVI melanoma
RPMI-8226 leukemia = test system: RPMI-8226 leukemia
MDA-MB-231 breast = test system: MDA-MB-231 breast
SNB-75 CNS = test system: SNB-75 CNS
ACHN renal = test system: ACHN renal
IGROV1 ovarian = test system: IGROV1 ovarian
SF-295 CNS = test system: SF-295 CNS
HOP-92 NSCLC = test system: HOP-92 NSCLC
MCF7 breast = test system: MCF7 breast
PC-3 prostate = test system: PC-3 prostate
MDA-N = test system: MDA-N
OVCAR-5 ovarian = test system: OVCAR-5 ovarian
SR leukemia = test system: SR leukemia
OVCAR-3 ovarian = test system: OVCAR-3 ovarian
A498 renal = test system: A498 renal
MOLT-4 leukemia = test system: MOLT-4 leukemia
K-562 leukemia = test system: K-562 leukemia
M14 melanoma = test system: M14 melanoma
DU-145 prostate = test system: DU-145 prostate
RXF 393 renal = test system: RXF 393 renal
SNB-19 CNS = test system: SNB-19 CNS

COc1ccc(C2=Nc3c(nc(SC)[nH]c3=O)NC(c3ccccc3)C2)cc1 (centres undefined)
TGI (OVCAR-8 ovarian): 40.7 µM | TGI (HOP-62 NSCLC): > 100 µM | TGI (MDA-MB-435): > 100 µM | TGI (BT-549 breast): 66.1 µM | TGI (UACC-257 melanoma): 57.4 µM | TGI (EKVX NSCLC): 67.8 µM | TGI (A549 NSCLC): 66.5 µM | TGI (HL-60(TB) leukemia): 42.5 µM | TGI (HT29 colon): 49.8 µM | TGI (CCRF-CEM leukemia): 98.6 µM | TGI (786-0 renal): > 100 µM | TGI (CAKI-1 renal): 31 µM | TGI (SF-539 CNS): 37.3 µM | TGI (SW-620 colon): > 100 µM | TGI (HCT-116 colon): > 100 µM | TGI (NCI-H226 lung): 65.2 µM | TGI (SK-MEL-2 melanoma): 94.4 µM | TGI (COLO 205 colon): 34.8 µM | TGI (SK-MEL-5 melanoma): 30.1 µM | TGI (KM12 colon): 30.2 µM | TGI (U251 CNS): 36.4 µM | TGI (SN12C renal): 47.2 µM | TGI (SK-OV-3 ovarian): 51.9 µM | TGI (NCI-H522 lung): 35.7 µM | TGI (MALME-3M melanoma): > 100 µM | TGI (NCI-H23 lung): 45.6 µM | TGI (UO-31 renal): 56.3 µM | TGI (NCI/ADR-RES ovarian): 77.3 µM | TGI (LOX IMVI melanoma): > 100 µM | TGI (RPMI-8226 leukemia): 62 µM | TGI (MDA-MB-231 breast): 30 µM | TGI (SNB-75 CNS): 48.8 µM | TGI (ACHN renal): 56.7 µM | TGI (IGROV1 ovarian): 55.6 µM | TGI (SF-295 CNS): 60.4 µM | TGI (HOP-92 NSCLC): > 100 µM | TGI (MCF7 breast): 41.8 µM | TGI (PC-3 prostate): > 100 µM | TGI (MDA-N): 35.4 µM | TGI (OVCAR-5 ovarian): > 100 µM | TGI (SR leukemia): > 100 µM | TGI (OVCAR-3 ovarian): > 100 µM | TGI (A498 renal): > 100 µM | TGI (MOLT-4 leukemia): 57.1 µM | TGI (K-562 leukemia): 66 µM | TGI (M14 melanoma): 66 µM | TGI (DU-145 prostate): 82.7 µM | TGI (RXF 393 renal): 39 µM | TGI (SNB-19 CNS): 65.4 µM
